“Also recorded” adds a separate entry of the source.
Tests used:
[1] = Cyclic voltammetry (reduction potentials); format: physicochemical; conditions: for Ered, first reduction potential: first value of cell; for Ered, first reduction potential / Ered, second reduction potential: DMF, 0.05 M Bu4NClO4, glass-carbon electrode, vs Ag/AgCl/KCl (sat.), 100 mV/s, C = 1 × 10^−1 mol L^−1; for Ered, second reduction potential: second value of cell
Description: It was shown that, as expected, the reduction potentials of Ti (IV) for all compounds depend on the structure of the carboxylate-containing ligand, in particular, the presence of donor and acceptor substituents in the ligand benzene ring (Table 3).
Cyclic Voltammetry experiments were conducted using an IPC Pro M potentiostat (Russia) with cyclic voltammetry (CV) and rotating disk electrode (RDE) techniques. Glass-carbon (d = 2 mm) disks were used as the working electrodes, 0.05 M Bu4NClO4 solution in DMF served as the supporting electrolyte, and Ag/AgCl/KCl (sat.) was used as the reference electrode. The potential scan rates were 100 mV/s. Samples were dissolved in the predeaerated solvent.

[2] = Stability in aqueous media (hydrolysis followed by optical absorption at 330 nm); format: physicochemical; conditions: 0.4 mM, 10% DMSO 90% water
Text: The decrease in the concentration of the coordination compound was estimated from the decrease in the optical absorption at a wavelength of 330 nm. We considered it inappropriate to use the optical absorption maximum in the range of 230–300 nm for similar purposes because the absorption of the initial coordination compound, free carboxylate-containing ligands, and cyclopentadiene may overlap in this region.
Stability in aqueous media was studied by recording the full optical absorption spectra of solutions of the studied titanocene derivatives with an initial concentration of 0.4 mM in the solvent system (10% DMSO 90% water) at different time intervals. The change in the concentration of the studied compound was evaluated by the decrease in optical absorption at a wavelength of 330 nm. Full absorption spectra of studied compounds are presented as Figure S7 in the Supplementary Materials.

[3] = system: metastatic breast and colon tumors; conditions: phase II clinical trials, dose of 240 mg/m^2; cited from earlier work
[4] = system: Ehrlich ascites carcinoma; set-up: method as in PMID 111586; conditions: cited from earlier work
[5] = system: adenocarcinoma of the lung, breast, and gastrointestinal tract; set-up: method as in PMID 111586, PMID 7988618; conditions: cited from earlier work
[6] = set-up: method as in PMID 9704729, PMID 9829732; conditions: phase I clinical trials; cited from earlier work
[7] = system: platinum-resistant cell lines; set-up: method as in PMID 8499130; conditions: cited from earlier work

O=C([O-])c1ccccc1.O=C([O-])c1ccccc1.[Ti+4].c1cc[cH-]c1.c1cc[cH-]c1 [2a, bis(η^5-cyclopentadienyl)bis(benzoato)titanium(IV)]
Ered, first reduction potential [1]: −0.85 V | Ered, second reduction potential [1]: −2.17 V

[N-]=[N+]=Nc1ccc(C(=O)[O-])cc1.[N-]=[N+]=Nc1ccc(C(=O)[O-])cc1.[Ti+4].c1cc[cH-]c1.c1cc[cH-]c1 [2c, bis(η^5-cyclopentadienyl)bis(4-azidobenzoato)titanium(IV)]
Ered, first reduction potential [1]: −0.78 V | Ered, second reduction potential [1]: −2.01 V

O=C([O-])c1cccc(F)c1.O=C([O-])c1cccc(F)c1.[Ti+4].c1cc[cH-]c1.c1cc[cH-]c1 [2d, bis(η^5-cyclopentadienyl)bis(3-fluorobenzoato)titanium(IV)]
Ered, first reduction potential [1]: −0.79 V | Ered, second reduction potential [1]: −2.05 V

O=C([O-])c1c(F)c(F)c(F)c(F)c1F.O=C([O-])c1c(F)c(F)c(F)c(F)c1F.[Ti+4].c1cc[cH-]c1.c1cc[cH-]c1 [2e, bis(η^5-cyclopentadienyl)bis(pentafluorobenzoato)titanium(IV)]
Ered, first reduction potential [1]: −0.57 V | Ered, second reduction potential [1]: −1.81 V | half-life time in water [2]: approximately 3 h | hydrolysis rate / stability in aqueous media [2]: hydrolyzed more slowly than compound 2b; also recorded: slower

CC(=O)Oc1ccccc1C(=O)[O-].CC(=O)Oc1ccccc1C(=O)[O-].[Ti+4].c1cc[cH-]c1.c1cc[cH-]c1 [2f, bis(η^5-cyclopentadienyl)bis(2-acetoxybenzoato)titanium(IV)]
Ered, first reduction potential [1]: −0.81 V | Ered, second reduction potential [1]: −2.11 V

[Cl-].[Cl-].[Ti+4].c1cc[cH-]c1.c1cc[cH-]c1 [Cp2TiCl2, Titanocene dichloride]
Ered, first reduction potential [1]: −0.62 V | Ered, second reduction potential [1]: −1.85 V | hydrolysis rate / stability in aqueous media [2]: lower stability in aqueous media compared to the carboxylate-containing analogues | therapeutic effect [3]: did not show a therapeutic effect | cure ([4]; Ehrlich ascites carcinoma inoculated into mice): 80% | side effects associated with drug toxicity ([4]; Ehrlich ascites carcinoma inoculated into xenograft mice): no noticeable side effects | cytotoxicity [5]: pronounced cytotoxicity | dose-dependent side effects [6]: mild nephrotoxicity, fatigue, and bilierubinimia | cytotoxicity [7]: pronounced cytotoxicity

bis(η^5-cyclopentadienyl)bis(4-benzoxybenzoato)titanium(IV) [2b]
Ered, first reduction potential [1]: −0.88 V | Ered, second reduction potential [1]: −2.21 V | half-life time in water [2]: approximately 3 h

bis(η^5-cyclopentadienyl)salicylatotitanium(IV) [2g]
Reversibility of reduction ([1]; CV in DMF): reversibly reduced and oxidized and rev | Ered, first reduction potential [1]: −0.90 V | hydrolysis rate / stability in aqueous media [2]: Hydrolysis proceeds slowly

Reference: PMC9964323, “New Titanocene (IV) Dicarboxylates with Potential Cytotoxicity: Synthesis, Structure, Stability and Electrochemistry” (International Journal of Molecular Sciences, 2023)
